According to PubChem BioAssay AID652123 (The Scripps Research Institute Molecular Screening Center, 2013):
Active and inactive are the calls of the source. No rule for the calls is given here.

These compounds were tested against Hepatocyte nuclear factor 4-alpha (Homo sapiens) (UniProt P41235) (assay: HNF4 dimerization inhibitors, dose response, counter-screen for ABHD5-PLIN5 interaction inhibitor project, biochemical, luminescence, round 2 (AID 652123)). Conditions: HNF4 dimerization biochemical luminescence assay.
Chain of Hepatocyte nuclear factor 4-alpha (Homo sapiens) (P41235 whole entry, looked up): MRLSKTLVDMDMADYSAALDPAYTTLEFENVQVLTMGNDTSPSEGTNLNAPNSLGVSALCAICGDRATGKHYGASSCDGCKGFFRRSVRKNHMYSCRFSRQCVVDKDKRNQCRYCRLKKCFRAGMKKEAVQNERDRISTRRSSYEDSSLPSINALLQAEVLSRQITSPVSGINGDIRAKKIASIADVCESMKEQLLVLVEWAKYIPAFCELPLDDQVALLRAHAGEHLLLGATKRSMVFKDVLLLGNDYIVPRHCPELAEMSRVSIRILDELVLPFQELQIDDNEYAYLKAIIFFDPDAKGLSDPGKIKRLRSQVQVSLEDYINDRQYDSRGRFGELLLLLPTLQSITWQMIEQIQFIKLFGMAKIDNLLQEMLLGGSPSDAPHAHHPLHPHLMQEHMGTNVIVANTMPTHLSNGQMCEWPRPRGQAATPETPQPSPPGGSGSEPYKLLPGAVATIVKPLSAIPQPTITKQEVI

SMILES | IC50
CC(NC(=O)CN1CCN(S(=O)(=O)c2ccc3c(c2)OCCCO3)CC1)c1cc2ccccc2o1 (centres undefined) | > 39.8 µM (inactive)
NS(=O)(=O)c1ccc(NC(=O)c2nc(S(=O)(=O)Cc3ccccc3)ncc2Cl)cc1 | 3.81 µM
O=C(Cc1ccc2c(c1)CCCC2)N1CCN(S(=O)(=O)c2ccc3c(c2)OCCO3)CC1 | inactive
CCS(=O)(=O)c1ncc(Cl)c(C(=O)Nc2ccc(S(N)(=O)=O)cc2)n1 | 5.08 µM
CCS(=O)(=O)c1ncc(Cl)c(C(=O)Nc2ccc(C)cc2)n1 | 4.01 µM
CN(C(=O)c1nc(S(C)(=O)=O)ncc1Cl)c1ccccc1 | 1.38 µM
O=C(Cc1cccc(F)c1)N1CCN(S(=O)(=O)c2ccc3c(c2)OCCO3)CC1 | > 39.8 µM (inactive)
O=C(Nc1ccc2ccccc2c1)c1nc(S(=O)(=O)Cc2ccccc2)ncc1Cl | 2.42 µM
COc1ccc(CCNC(=O)c2nc(S(=O)(=O)Cc3ccc(F)cc3)ncc2Cl)cc1OC | 1.94 µM
CN(C)CCCN(C(=O)Cc1ccc(F)cc1)c1nc2ccc(Cl)cc2s1 | > 39.8 µM (inactive)
CN1C(=O)c2ccccc2Oc2ccc(NC(=O)c3cccs3)cc21 | > 39.8 µM (inactive)
Cc1ccc(CS(=O)(=O)c2ncc(Cl)c(C(=O)Nc3cccc4ccccc34)n2)cc1 | 2.79 µM
CC(C)N1C(=O)c2ccccc2Oc2ccc(NC(=O)c3ccccc3)cc21 | > 39.8 µM (inactive)
CN1C(=O)c2ccccc2Oc2ccc(NC(=O)c3cc4ccccc4[nH]3)cc21 | > 39.8 µM (inactive)
CCCC(=O)Nc1ccc2c(c1)C(=O)N(C)c1ccccc1O2 | > 39.8 µM (inactive)
CCCC(=O)Nc1ccc2c(c1)C(=O)N(C)c1cc(C)ccc1O2 | > 39.8 µM (inactive)
CN(C)CCCN(C(=O)CCc1ccccc1)c1nc2ccc(Cl)cc2s1 | > 39.8 µM (inactive)
COc1ccc(CC(=O)N2CCCN(S(=O)(=O)c3ccc(C)cc3)CC2)cc1OC | > 39.8 µM (inactive)
O=C(c1nc(S(=O)(=O)Cc2ccccc2)ncc1Cl)N(Cc1ccccc1)Cc1ccco1 | 1.35 µM
CN1C(=O)c2ccccc2Sc2ccc(NC(=O)NCCc3cccs3)cc21 | > 39.8 µM (inactive)

SMILES | IC50
CCCS(=O)(=O)c1ncc(Cl)c(C(=O)Nc2ccc(C(=O)OC)cc2)n1 | 4.99 µM
CCCCCCCNC(=O)Nc1ccc2c(c1)Sc1ccccc1C(=O)N2C | > 39.8 µM (inactive)
CN(C)CCCN(C(=O)C1CCCCC1)c1nc2cc(Br)ccc2s1 | > 39.8 µM (inactive)
CCCCCCNC(=O)Nc1ccc2c(c1)Sc1ccccc1C(=O)N2C | > 39.8 µM (inactive)
Cc1ccc(CS(=O)(=O)c2ncc(Cl)c(C(=O)Nc3cccc(C(F)(F)F)c3)n2)cc1 | 3.09 µM
CCCNC(=O)Nc1ccc2c(c1)N(CC)C(=O)c1ccccc1S2 | > 39.8 µM (inactive)
Cc1ccc(CS(=O)(=O)c2ncc(Cl)c(C(=O)Nc3nnc(C(C)C)s3)n2)cc1 | > 39.8 µM (inactive)
Cc1ccc(NC(=O)c2nc(S(C)(=O)=O)ncc2Cl)cc1 | 2.44 µM
Cc1ccc(CS(=O)(=O)c2ncc(Cl)c(C(=O)NCc3ccc4c(c3)OCO4)n2)cc1 | 1.87 µM
Cc1ccc2c(CC(=O)N3CCN(S(=O)(=O)c4ccc5c(c4)OCCCO5)CC3)coc2c1C | > 39.8 µM (inactive)
CCCC(=O)N(CCCN1CCOCC1)c1nc2ccc(Cl)cc2s1 | > 39.8 µM (inactive)
CN1C(=O)c2ccccc2Sc2ccc(NC(=O)NCCc3ccccc3)cc21 | > 39.8 µM (inactive)
CN1C(=O)c2ccccc2Sc2ccc(NC(=O)NCCCc3ccccc3)cc21 | > 39.8 µM (inactive)
Cc1ccc(CS(=O)(=O)c2ncc(Cl)c(C(=O)N3CCN(C)CC3)n2)cc1 | 2.17 µM
CCCCCNC(=O)Nc1ccc2c(c1)Sc1ccccc1C(=O)N2C | > 39.8 µM (inactive)
CCCS(=O)(=O)c1ccc(Cl)c(C(=O)Nc2ccc(C(=O)OCC)cc2)c1 | 5.66 µM
CS(=O)(=O)c1ncc(Cl)c(C(=O)Nc2ccc(C(F)(F)F)cc2)n1 | 1.15 µM
CN(C)CCCN(C(=O)C1CCCCC1)c1nc2cc(Cl)ccc2s1 | > 39.8 µM (inactive)
CN(C)CCCN(C(=O)c1cc2ccccc2oc1=O)c1nc2ccc(Cl)cc2s1 | > 39.8 µM (inactive)
